Measurements from patent US7858620B2, “Cyanoisoquinoline” (H. Lundbeck A/S, priority 2007, dated 2010).

Target: T1, PDE10A enzyme (Homo sapiens, UniProt Q9Y233)
T1 construct: made in house; host or cells: E. coli BL21(DE3)
Assay: PDE10A inhibition assay, SPA
Format: biochemical
Conditions: column head 2,1334003; unit inferred, nM
Experimental: Active PDE10A enzyme is prepared in a number of ways for use in PDE assays (Loughney, K. et al. Gene 1999, 234, 109-117; Fujishige, K. et al. Eur J Biochem. 1999, 266, 1118-1127 and Soderling, S. et al. Proc. Natl. Acad. Sci. 1999, 96, 7071-7076). PDE10A can be expressed as full-length proteins or as truncated proteins, as long as they express the catalytic domain. PDE10A can be prepared in different cell types, for example insect cells or E. coli. An example of a method to obtain catalytically active PDE10A is as follows: The catalytic domain of human PDE10A (amino acids 440-779 from the sequence with accession number NP 006652) is amplified from total human brain total RNA by standard RT-PCR and is cloned into the BamH1 and Xho1 sites of the pET28a vector (Novagen). Expression in coli is performed according to standard protocols. Briefly, the expression plasmids are transformed into the BL21(DE3) E. coli strain, and 50 mL cultures inoculated with the cells allowed to grow to an OD600 of 0.4-0.6 before protein expression is induced with 0.5 mM IPTG. Following induction, the cells are incubated overnight at room temperature, after which the cells are collected by centrifugation. Cells expressing PDE10A are resuspended in 12 mL (50 mM TRIS-HCl-pH8.0, 1 mM MgCl2 and protease inhibitors). The cells are lysed by sonication, and after all cells are lysed, TritonX100 is added according to Novagen protocols.
PDE10A and Pde3A assays can for example be performed as follows: PDE10A and Pde3A assays are performed in 60 uL samples containing a fixed amount of the relevant PDE enzyme (sufficient to convert 20-25% of the cyclic nucleotide substrate), a buffer (50 mM HEPES7.6; 10 mM MgCl2; 0.02% Tween20), 0.1 mg/ml BSA, 225 pCi of ^3H-labelled cyclic nucleotide substrate, tritium labeled cAMP to a final concentration of 5 nM and varying amounts of inhibitors. Reactions are initiated by addition of the cyclic nucleotide substrate, and reactions are allowed to proceed for one hr at room temperature before being terminated through mixing with 15 uL 8 mg/mL yttrium silicate SPA beads (Amersham). The beads are allowed to settle for one hr in the dark before the plates are counted in a Wallac 1450 Microbeta counter. The measured signal can be converted to activity relative to an uninhibited control (100%) and IC50 values can be calculated using the Xlfit extension to EXCEL.

T1 sequence (Q9Y233 716-1055): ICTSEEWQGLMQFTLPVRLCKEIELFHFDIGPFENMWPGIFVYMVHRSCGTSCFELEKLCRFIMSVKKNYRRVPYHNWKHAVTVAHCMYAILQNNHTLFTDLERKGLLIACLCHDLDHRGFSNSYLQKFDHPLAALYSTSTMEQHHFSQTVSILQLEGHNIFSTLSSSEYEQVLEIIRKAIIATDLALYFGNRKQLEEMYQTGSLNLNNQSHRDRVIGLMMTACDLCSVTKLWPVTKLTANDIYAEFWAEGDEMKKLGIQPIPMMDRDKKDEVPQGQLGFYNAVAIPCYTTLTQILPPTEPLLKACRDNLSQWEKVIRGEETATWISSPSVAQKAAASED

IC50 | Structure (SMILES)
1300 nM | COc1cccc(C2CN(c3ncc(C#N)c4cc(OC)c(OC)cc34)CCN2)c1 (single isomer, unassigned; (+)) [Compound 23, (+)-6,7-Dimethoxy-1-[3-(3-methoxy-phenyl)-piperazin-1-yl]-isoquinoline-4-carbonitrile]
27 nM | COc1cccc(C2CN(c3ncc(C#N)c4cc(OC)c(OC)cc34)CCN2)c1 (single isomer, unassigned; (-)) [Compound 24, (−)-6,7-Dimethoxy-1-[3-(3-methoxy-phenyl)-piperazin-1-yl]-isoquinoline-4-carbonitrile]
80 nM | COc1cc2c(C#N)cnc(N3CCNC(c4ccc(F)cc4)C3)c2cc1OC (stereo not shown) [Compound 1, 1-[3-(4-Fluoro-phenyl)-piperazin-1-yl]-6,7-dimethoxy-isoquinoline-4-carbonitrile]
320 nM | COc1cccc(C2CN(c3ncc(C#N)c4cc(OC)c(OC)cc34)CCN2)c1 (stereo not shown) [Compound 2, 6,7-Dimethoxy-1-[3-(3-methoxy-phenyl)-piperazin-1-yl]-isoquinoline-4-carbonitrile]
240 nM | COc1cccc(C2CN(c3nc(C)c(C#N)c4cc(OC)c(OC)cc34)CCN2)c1 (stereo not shown) [Compound 3, 6,7-Dimethoxy-1-[3-(3-methoxy-phenyl)-piperazin-1-yl]-3-methyl-isoquinoline-4-carbonitrile]
78 nM | COc1cc2c(C#N)cnc(N3CCNC(c4cccc5ccccc45)C3)c2cc1OC (stereo not shown) [Compound 4, 6,7-Dimethoxy-1-(3-naphthalen-1-yl-piperazin-1-yl)-isoquinoline-4-carbonitrile]
54 nM | COc1ccc(C2CN(c3ncc(C#N)c4cc(OC)c(OC)cc34)CCN2)cc1 (stereo not shown) [Compound 5, 6,7-Dimethoxy-1-[3-(4-methoxy-phenyl)-piperazin-1-yl]-isoquinoline-4-carbonitrile]
420 nM | COc1cc2c(C#N)cnc(N3CCNC(c4ccccc4OC)C3)c2cc1OC (stereo not shown) [Compound 6, 6,7-Dimethoxy-1-[3-(2-methoxy-phenyl)-piperazin-1-yl]-isoquinoline-4-carbonitrile]
76 nM | COc1cc2c(C#N)cnc(N3CCNC(c4ccc(N(C)C)cc4)C3)c2cc1OC (stereo not shown) [Compound 7, 1-[3-(4-Dimethylamino-phenyl)-piperazin-1-yl]-6,7-dimethoxy-isoquinoline-4-carbonitrile]
81 nM | COc1cc2c(C#N)cnc(N3CCNC(c4ccc5c(c4)OCO5)C3)c2cc1OC (stereo not shown) [Compound 8, 1-(3-Benzo[1,3]dioxol-5-yl-piperazin-1-yl)-6,7-dimethoxy-isoquinoline-4-carbonitrile]
120 nM | COc1cc2c(C#N)cnc(N3CCNC(c4cccc([N+](=O)[O-])c4)C3)c2cc1OC (stereo not shown) [Compound 9, 6,7-Dimethoxy-1-[3-(3-nitro-phenyl)-piperazin-1-yl]-isoquinoline-4-carbonitrile]
73 nM | COc1cc2c(C#N)cnc(N3CCNC(c4ccc5ccccc5c4)C3)c2cc1OC (stereo not shown) [Compound 10, 6,7-Dimethoxy-1-(3-naphthalen-2-yl-piperazin-1-yl)-isoquinoline-4-carbonitrile]
41 nM | COc1cc(OC)cc(C2CN(c3ncc(C#N)c4cc(OC)c(OC)cc34)CCN2)c1 (stereo not shown) [Compound 11, 1-[3-(3,5-Dimethoxy-phenyl)-piperazin-1-yl]-6,7-dimethoxy-isoquinoline-4-carbonitrile]
42 nM | COc1ccc(OC)c(C2CN(c3ncc(C#N)c4cc(OC)c(OC)cc34)CCN2)c1 (stereo not shown) [Compound 12, 1-[3-(2,5-Dimethoxy-phenyl)-piperazin-1-yl]-6,7-dimethoxy-isoquinoline-4-carbonitrile]
160 nM | COc1cc2c(C#N)cnc(N3CCNC(c4ccc(C(F)(F)F)cc4)C3)c2cc1OC (stereo not shown) [Compound 13, 6,7-Dimethoxy-1-[3-(4-trifluoromethyl-phenyl)-piperazin-1-yl]-isoquinoline-4-carbonitrile]
650 nM | COc1cc2c(C#N)cnc(N3CCNC(c4cc(Cl)ccc4Cl)C3)c2cc1OC (stereo not shown) [Compound 14, 1-[3-(2,5-Dichloro-phenyl)-piperazin-1-yl]-6,7-dimethoxy-isoquinoline-4-carbonitrile]
520 nM | COc1cc2c(C#N)cnc(N3CCNC(c4ccc(Cl)cc4Cl)C3)c2cc1OC (stereo not shown) [Compound 15, 1-[3-(2,4-Dichloro-phenyl)-piperazin-1-yl]-6,7-dimethoxy-isoquinoline-4-carbonitrile]
76 nM | COc1cc2c(C#N)cnc(N3CCNC(c4ccc(N5CCOCC5)cc4)C3)c2cc1OC (stereo not shown) [Compound 16, 6,7-Dimethoxy-1-[3-(4-morpholin-4-yl-phenyl)-piperazin-1-yl]-isoquinoline-4-carbonitrile]
1000 nM | COc1cc2c(C#N)cnc(N3CCNC(c4cc(F)c(Cl)cc4Cl)C3)c2cc1OC (stereo not shown) [Compound 17, 1-[3-(2,4-Dichloro-5-fluoro-phenyl)-piperazin-1-yl]-6,7-dimethoxy-isoquinoline-4-carbonitrile]
300 nM | COc1cc2c(C#N)cnc(N3CCNC(c4ccc(C)cc4)C3)c2cc1OC (stereo not shown) [Compound 25, 6,7-Dimethoxy-1-(3-p-tolyl-piperazin-1-yl)-isoquinoline-4-carbonitrile]
390 nM | COc1cc2c(C#N)cnc(N3CCNC(c4cccc(Cl)c4)C3)c2cc1OC (stereo not shown) [Compound 26, 1-[3-(3-Chloro-phenyl)-piperazin-1-yl]-6,7-dimethoxy-isoquinoline-4-carbonitrile]
510 nM | COc1cc2c(C#N)cnc(N3CCNC(c4ccc(Br)cc4)C3)c2cc1OC (stereo not shown) [Compound 27, 1-[3-(4-Bromo-phenyl)-piperazin-1-yl]-6,7-dimethoxy-isoquinoline-4-carbonitrile]
330 nM | COc1ccc2cc(C3CN(c4ncc(C#N)c5cc(OC)c(OC)cc45)CCN3)ccc2c1 (stereo not shown) [Compound 28, 6,7-Dimethoxy-1-[3-(6-methoxy-naphthalen-2-yl)-piperazin-1-yl]-isoquinoline-4-carbonitrile]
700 nM | COc1cc2c(C#N)cnc(N3CCNC(c4ccc(Cl)cc4)C3)c2cc1OC (stereo not shown) [Compound 30, 1-[3-(4-Chloro-phenyl)-piperazin-1-yl]-6,7-dimethoxy-isoquinoline-4-carbonitrile]
1000 nM | COc1cc2c(N3CCNC(c4ccc(C)cc4)C3)nc(C)c(C#N)c2cc1OC (stereo not shown) [Compound 31, 6,7-Dimethoxy-3-methyl-1-(3-p-tolyl-piperazin-1-yl)-isoquinoline-4-carbonitrile]
290 nM | COc1ccc(C2CN(c3nc(C)c(C#N)c4cc(OC)c(OC)cc34)CCN2)cc1 (stereo not shown) [Compound 32, 6,7-Dimethoxy-1-[3-(4-methoxy-phenyl)-piperazin-1-yl]-3-methyl-isoquinoline-4-carbonitrile]
2100 nM | COc1cc2c(N3CCNC(c4ccc5ccccc5c4)C3)nc(C)c(C#N)c2cc1OC (stereo not shown) [Compound 33, 6,7-Dimethoxy-3-methyl-1-(3-naphthalen-2-yl-piperazin-1-yl)-isoquinoline-4-carbonitrile]
880 nM | COc1cc2c(N3CCNC(c4cccc5ccccc45)C3)nc(C)c(C#N)c2cc1OC (stereo not shown) [Compound 34, 6,7-Dimethoxy-3-methyl-1-(3-naphthalen-1-yl-piperazin-1-yl)-isoquinoline-4-carbonitrile]

Structure (SMILES) | IC50
COc1ccc(C2CN(c3ncc(C#N)c4cc(OC)c(OC)cc34)CCO2)cc1 (stereo not shown) [Compound 18, 6,7-Dimethoxy-1-[2-(4-methoxy-phenyl)-morpholin-4-yl]-isoquinoline-4-carbonitrile] | 97 nM
COc1cc2c(C#N)cnc(N3CCOC(c4ccc(C)cc4)C3)c2cc1OC (stereo not shown) [Compound 19, 6,7-Dimethoxy-1-(2-p-tolyl-morpholin-4-yl)-isoquinoline-4-carbonitrile] | 580 nM
COc1cc2c(C#N)cnc(N3CCOC(c4ccc(Cl)cc4)C3)c2cc1OC (stereo not shown) [Compound 20, 1-[2-(4-Chloro-phenyl)-morpholin-4-yl]-6,7-dimethoxy-isoquinoline-4-carbonitrile] | 800 nM
COc1cc2c(C#N)cnc(N3CCOC(c4ccccc4Cl)C3)c2cc1OC (stereo not shown) [Compound 21, 1-[2-(2-Chloro-phenyl)-morpholin-4-yl]-6,7-dimethoxy-isoquinoline-4-carbonitrile] | 530 nM
COc1cc2c(C#N)cnc(N3CCOC(c4ccc(C(F)(F)F)cc4)C3)c2cc1OC (stereo not shown) [Compound 22, 6,7-Dimethoxy-1-[2-(4-trifluoromethyl-phenyl)-morpholin-4-yl]-isoquinoline-4-carbonitrile] | 1600 nM
COc1cc2c(C#N)cnc(N3CCSC(c4ccccc4)C3)c2cc1OC (stereo not shown) [Compound 29, 6,7-Dimethoxy-1-(2-phenyl-thiomorpholin-4-yl)-isoquinoline-4-carbonitrile] | 2500 nM
